Test results reported in ChEMBL document CHEMBL1201862, “PubChem BioAssay data set” (2004).
Activity calls are given as the source filed them.

What was measured:
[1] = target: Glyceraldehyde-3-phosphate dehydrogenase (Homo sapiens, UniProt P04406)
Bcl-2-related protein A1 [2] = target: T1, Bcl-2-related protein A1 (Mus musculus, UniProt Q07440); assay: small-molecule antagonists of Bfl-1/BH3 interaction – biochemical, TR-FRET, mouse Bfl-1, confirmation (AID 621);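 further: TR-FRET binding of GST-Bfl-1 to FITC-labelled Bid peptide via terbium antibody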
T1 sequence (Q07440 whole entry): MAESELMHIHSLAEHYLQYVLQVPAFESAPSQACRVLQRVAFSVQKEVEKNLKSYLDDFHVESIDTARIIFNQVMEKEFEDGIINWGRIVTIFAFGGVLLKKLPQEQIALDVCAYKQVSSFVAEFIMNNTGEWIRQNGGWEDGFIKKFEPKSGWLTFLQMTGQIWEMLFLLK

Bcl-2-related protein A1 [3] = target: T1, Bcl-2-related protein A1; assay: Bfl-1 binding inhibitors, SAR follow-up, biochemical, fluorescence polarization (AID 1070)
[4] = target: T2, Nucleotide-binding oligomerization domain-containing protein 1 (Homo sapiens, UniProt Q9Y239); assay: SAR analysis of compounds that inhibit NOD1 - Set 3. [Related pubchem assays (depositor defined):AID1566, AID1575, AID1578, AID1849, AID1852, AID2333, AID2335, AID2466]; type: functional
T2 sequence (Q9Y239 whole entry): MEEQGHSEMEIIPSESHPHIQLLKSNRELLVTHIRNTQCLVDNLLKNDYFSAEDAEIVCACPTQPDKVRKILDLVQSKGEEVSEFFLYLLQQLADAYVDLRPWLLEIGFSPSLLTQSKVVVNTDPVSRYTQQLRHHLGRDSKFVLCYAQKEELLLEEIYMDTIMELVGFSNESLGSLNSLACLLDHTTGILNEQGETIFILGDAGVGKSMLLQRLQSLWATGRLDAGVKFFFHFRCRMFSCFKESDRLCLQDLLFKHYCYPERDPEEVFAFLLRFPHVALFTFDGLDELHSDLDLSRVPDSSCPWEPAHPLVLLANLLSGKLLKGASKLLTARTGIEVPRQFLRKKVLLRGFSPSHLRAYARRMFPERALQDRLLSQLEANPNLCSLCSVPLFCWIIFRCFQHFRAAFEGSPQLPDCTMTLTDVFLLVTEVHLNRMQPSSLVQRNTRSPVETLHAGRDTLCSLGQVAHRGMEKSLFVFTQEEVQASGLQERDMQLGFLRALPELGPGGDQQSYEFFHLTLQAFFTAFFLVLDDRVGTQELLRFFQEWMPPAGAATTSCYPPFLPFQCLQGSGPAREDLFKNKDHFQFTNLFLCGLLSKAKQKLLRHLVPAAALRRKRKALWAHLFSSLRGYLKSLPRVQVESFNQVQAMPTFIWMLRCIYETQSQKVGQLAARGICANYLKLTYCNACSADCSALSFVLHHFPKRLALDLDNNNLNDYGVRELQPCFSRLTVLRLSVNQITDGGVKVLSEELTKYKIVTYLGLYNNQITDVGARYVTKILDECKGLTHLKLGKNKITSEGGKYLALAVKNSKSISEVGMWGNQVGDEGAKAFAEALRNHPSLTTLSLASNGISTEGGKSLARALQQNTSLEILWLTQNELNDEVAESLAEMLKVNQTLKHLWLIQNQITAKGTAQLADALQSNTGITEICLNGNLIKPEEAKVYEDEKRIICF

Tumor necrosis factor = Tumor necrosis factor (Homo sapiens, UniProt P01375); assay: analog potency on TNFa NF-kB signaling – cell-based, set 3, SAR follow-up (AID 2801); type: functional
HEK293 = assay: SAR analysis of compounds that are cytotoxic to HEK293 - Set 3. [Related pubchem assays (depositor defined):AID1575, AID1578, AID1848, AID1849, AID2001, AID2333, AID2334, AID2335, AID2337, AID2469]; type: functional, cell-based; settings: Homo sapiens
[5] = target: Nucleotide-binding oligomerization domain-containing protein 2 (Homo sapiens, UniProt Q9HC29); assay: inhibition of MDP-driven NOD2 NF-kB reporter – cell-based, set 3, SAR follow-up (AID 2799); type: functional
[6] = target: T3, Heat shock factor protein 1 (Mus musculus, UniProt P38532); assay: decrease of HSF1-responsive luciferase luminescence – cell-based, NIH3T3, dose retest, confirmation (AID 2382); type: functional;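 further: NIH3T3 fibroblasts with HSF1-driven luciferase reporter stressed by proteasome inhibitor MG132; luminescence from HSF1-driven luciferase expression after 8 hours of MG132 stress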
T3 sequence (P38532 whole entry): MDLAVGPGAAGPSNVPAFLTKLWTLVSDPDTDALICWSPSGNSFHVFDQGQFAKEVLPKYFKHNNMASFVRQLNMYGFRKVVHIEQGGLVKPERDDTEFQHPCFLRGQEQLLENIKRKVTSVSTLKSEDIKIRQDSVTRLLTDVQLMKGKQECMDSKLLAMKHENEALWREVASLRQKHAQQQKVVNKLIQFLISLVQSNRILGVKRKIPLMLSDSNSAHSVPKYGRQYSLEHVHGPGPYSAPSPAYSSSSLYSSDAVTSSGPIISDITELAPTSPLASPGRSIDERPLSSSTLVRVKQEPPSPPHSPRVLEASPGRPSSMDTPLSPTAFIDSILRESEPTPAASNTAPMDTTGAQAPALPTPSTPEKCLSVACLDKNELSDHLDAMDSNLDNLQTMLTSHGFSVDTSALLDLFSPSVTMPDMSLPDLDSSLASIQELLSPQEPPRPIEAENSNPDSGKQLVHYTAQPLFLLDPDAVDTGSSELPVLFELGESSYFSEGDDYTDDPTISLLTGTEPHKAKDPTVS

[7] = Luminescence Cell-Based Dose Retest to Confirm Inhibitors of Cancer Stem Cells. [Related pubchem assays (depositor defined):AID2717, AID2721]; type: functional; settings: Homo sapiens
[8] = viability loss of HMLE_sh_eGFP cells – cell-based, luminescence, counter-screen for HMLE_sh_ECad selective toxicity project, dose response (AID 463074); type: functional, Homo sapiens;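 further: HMLE human mammary epithelial cells expressing control shRNA against eGFP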
INS1 = assay: INS-1E survival protection against cytokine death – cell-based, luminescence, retest, dose response (AID 449756); type: functional; settings: Rattus norvegicus;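 further: cell death triggered by IL-1 beta plus TNF-alpha plus IFN-gamma mixture; protective hits raise ATP signal compared with cytokine alone wells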
[9] = target: Voltage-dependent T-type calcium channel subunit alpha-1H (Homo sapiens, UniProt O95180); assay: inhibition of CACNA1H calcium flux – cell-based, SynthLib3 library, HEK293 Cav3.2, fluorescence (AID 493041); type: functional
[10] = target: T4, Dual specificity protein phosphatase 3 (Homo sapiens, UniProt P51452); assay: VHR1 phosphatase inhibitors, primary screen, biochemical, absorbance, uHTS (AID 1654)
[11] = viability of PTEN-deleted HCT116 cells – cell-based, HCT116 PTEN knockout, dose response (AID 1047); type: functional;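 further: HCT116 colon tumor cells with PTEN knocked out; cells exposed to compound for 60 hours before readout; potency for loss of cell viability measured by luminescence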
[12] = target: T4, Dual specificity protein phosphatase 3; assay: VHR1 phosphatase inhibitors, biochemical (AID 1878)
[13] = viability of HCT116 lacking mutant beta-catenin – cell-based, human colon tumor, dose response (AID 1045); type: functional;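 further: HCT116 colon tumor cells with beta catenin knocked out; cells exposed to compound for 60 hours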
[14] = target: T5, Dual specificity protein phosphatase 6 (Rattus norvegicus, UniProt Q64346); assay: inhibition of rat DUSP6 enzyme activity – biochemical, in vitro, primary screen (AID 425)
T5 sequence (Q64346 whole entry): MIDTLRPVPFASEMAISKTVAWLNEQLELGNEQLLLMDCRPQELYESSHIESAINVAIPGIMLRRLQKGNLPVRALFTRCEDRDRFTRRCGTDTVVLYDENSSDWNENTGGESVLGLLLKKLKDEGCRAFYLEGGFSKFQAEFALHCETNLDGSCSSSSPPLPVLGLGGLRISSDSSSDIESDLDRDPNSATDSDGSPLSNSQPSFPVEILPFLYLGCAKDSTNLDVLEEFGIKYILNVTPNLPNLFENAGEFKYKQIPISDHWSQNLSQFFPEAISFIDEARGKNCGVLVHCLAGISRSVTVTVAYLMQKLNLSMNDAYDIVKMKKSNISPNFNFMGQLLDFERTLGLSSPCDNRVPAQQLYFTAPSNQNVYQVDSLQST

[15] = target: Tyrosine-protein phosphatase non-receptor type 11 (Homo sapiens, UniProt Q06124); assay: PTPN11 enzyme inhibitors – biochemical, selectivity assay for STEP inhibitor project, dose response (AID 602367); type: functional; settings: read-out: IC50_Mean
[16] = target: Tyrosine-protein phosphatase non-receptor type 5 (Homo sapiens, UniProt P54829); assay: PTPN5 enzyme inhibition – biochemical, fluorescence intensity, uHTS hits, confirmation (AID 602372); type: functional; settings: read-out: IC50_Mean
[17] = target: T4, Dual specificity protein phosphatase 3; assay: VHR phosphatase inhibition, dose response, selectivity assay for STEP inhibitor project, biochemical (AID 602374); type: functional; settings: read-out: IC50_Mean
[18] = target: T6, Low molecular weight phosphotyrosine protein phosphatase (Homo sapiens, UniProt P24666); type: functional; settings: read-out: IC50_Mean
T6 sequence (P24666 whole entry): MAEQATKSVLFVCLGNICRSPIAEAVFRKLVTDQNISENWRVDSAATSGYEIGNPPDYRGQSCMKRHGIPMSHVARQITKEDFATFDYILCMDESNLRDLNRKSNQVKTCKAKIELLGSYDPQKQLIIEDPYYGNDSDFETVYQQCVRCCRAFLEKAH

[19] = target: T6, Low molecular weight phosphotyrosine protein phosphatase; type: functional; settings: read-out: IC50_Mean; remark: listed apart in the source

T4 sequence (P51452 whole entry): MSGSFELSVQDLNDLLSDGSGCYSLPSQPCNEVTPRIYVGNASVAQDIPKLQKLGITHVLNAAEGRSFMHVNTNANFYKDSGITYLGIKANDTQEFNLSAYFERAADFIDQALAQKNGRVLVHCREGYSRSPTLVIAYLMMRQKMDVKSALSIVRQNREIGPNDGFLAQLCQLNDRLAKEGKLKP
Chain of Tyrosine-protein phosphatase non-receptor type 5 (P54829 whole entry): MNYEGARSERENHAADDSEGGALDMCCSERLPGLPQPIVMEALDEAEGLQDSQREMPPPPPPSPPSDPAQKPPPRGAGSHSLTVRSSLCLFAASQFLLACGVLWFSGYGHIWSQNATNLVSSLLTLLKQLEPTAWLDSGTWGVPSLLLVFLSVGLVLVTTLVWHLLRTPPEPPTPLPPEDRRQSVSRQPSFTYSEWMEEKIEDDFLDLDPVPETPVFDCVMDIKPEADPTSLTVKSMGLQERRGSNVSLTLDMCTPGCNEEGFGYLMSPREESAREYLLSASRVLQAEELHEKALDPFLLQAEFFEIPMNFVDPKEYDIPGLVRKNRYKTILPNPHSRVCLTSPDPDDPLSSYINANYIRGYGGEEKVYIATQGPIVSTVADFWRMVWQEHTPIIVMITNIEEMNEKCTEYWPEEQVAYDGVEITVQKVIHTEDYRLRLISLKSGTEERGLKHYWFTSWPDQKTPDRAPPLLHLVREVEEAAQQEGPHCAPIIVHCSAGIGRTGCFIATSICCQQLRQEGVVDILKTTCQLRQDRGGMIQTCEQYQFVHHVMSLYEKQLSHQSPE
Chain of Tyrosine-protein phosphatase non-receptor type 11 (Q06124 whole entry): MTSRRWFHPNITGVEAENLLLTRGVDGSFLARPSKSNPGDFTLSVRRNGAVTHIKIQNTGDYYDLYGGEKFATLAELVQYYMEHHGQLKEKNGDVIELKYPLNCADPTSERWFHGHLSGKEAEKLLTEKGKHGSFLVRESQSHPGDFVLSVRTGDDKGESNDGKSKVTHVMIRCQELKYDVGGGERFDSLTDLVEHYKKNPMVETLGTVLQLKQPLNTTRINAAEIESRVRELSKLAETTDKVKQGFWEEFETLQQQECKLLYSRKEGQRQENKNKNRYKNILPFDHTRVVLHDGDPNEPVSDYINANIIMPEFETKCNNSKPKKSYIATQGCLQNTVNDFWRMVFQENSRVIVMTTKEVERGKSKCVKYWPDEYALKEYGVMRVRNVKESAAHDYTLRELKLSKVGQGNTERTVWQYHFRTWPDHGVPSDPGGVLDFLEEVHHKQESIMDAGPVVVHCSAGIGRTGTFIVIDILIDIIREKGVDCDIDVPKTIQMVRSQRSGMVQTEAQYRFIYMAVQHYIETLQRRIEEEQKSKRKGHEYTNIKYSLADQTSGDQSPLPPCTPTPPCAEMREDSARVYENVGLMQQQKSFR
Chain of Tumor necrosis factor (P01375 whole entry): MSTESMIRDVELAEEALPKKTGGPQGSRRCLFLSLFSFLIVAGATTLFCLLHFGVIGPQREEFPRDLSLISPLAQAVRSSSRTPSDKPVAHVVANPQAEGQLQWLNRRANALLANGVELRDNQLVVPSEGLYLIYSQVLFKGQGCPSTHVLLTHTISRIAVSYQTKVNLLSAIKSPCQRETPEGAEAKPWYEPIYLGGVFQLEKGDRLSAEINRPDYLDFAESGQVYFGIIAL
Chain of Voltage-dependent T-type calcium channel subunit alpha-1H (O95180 whole entry): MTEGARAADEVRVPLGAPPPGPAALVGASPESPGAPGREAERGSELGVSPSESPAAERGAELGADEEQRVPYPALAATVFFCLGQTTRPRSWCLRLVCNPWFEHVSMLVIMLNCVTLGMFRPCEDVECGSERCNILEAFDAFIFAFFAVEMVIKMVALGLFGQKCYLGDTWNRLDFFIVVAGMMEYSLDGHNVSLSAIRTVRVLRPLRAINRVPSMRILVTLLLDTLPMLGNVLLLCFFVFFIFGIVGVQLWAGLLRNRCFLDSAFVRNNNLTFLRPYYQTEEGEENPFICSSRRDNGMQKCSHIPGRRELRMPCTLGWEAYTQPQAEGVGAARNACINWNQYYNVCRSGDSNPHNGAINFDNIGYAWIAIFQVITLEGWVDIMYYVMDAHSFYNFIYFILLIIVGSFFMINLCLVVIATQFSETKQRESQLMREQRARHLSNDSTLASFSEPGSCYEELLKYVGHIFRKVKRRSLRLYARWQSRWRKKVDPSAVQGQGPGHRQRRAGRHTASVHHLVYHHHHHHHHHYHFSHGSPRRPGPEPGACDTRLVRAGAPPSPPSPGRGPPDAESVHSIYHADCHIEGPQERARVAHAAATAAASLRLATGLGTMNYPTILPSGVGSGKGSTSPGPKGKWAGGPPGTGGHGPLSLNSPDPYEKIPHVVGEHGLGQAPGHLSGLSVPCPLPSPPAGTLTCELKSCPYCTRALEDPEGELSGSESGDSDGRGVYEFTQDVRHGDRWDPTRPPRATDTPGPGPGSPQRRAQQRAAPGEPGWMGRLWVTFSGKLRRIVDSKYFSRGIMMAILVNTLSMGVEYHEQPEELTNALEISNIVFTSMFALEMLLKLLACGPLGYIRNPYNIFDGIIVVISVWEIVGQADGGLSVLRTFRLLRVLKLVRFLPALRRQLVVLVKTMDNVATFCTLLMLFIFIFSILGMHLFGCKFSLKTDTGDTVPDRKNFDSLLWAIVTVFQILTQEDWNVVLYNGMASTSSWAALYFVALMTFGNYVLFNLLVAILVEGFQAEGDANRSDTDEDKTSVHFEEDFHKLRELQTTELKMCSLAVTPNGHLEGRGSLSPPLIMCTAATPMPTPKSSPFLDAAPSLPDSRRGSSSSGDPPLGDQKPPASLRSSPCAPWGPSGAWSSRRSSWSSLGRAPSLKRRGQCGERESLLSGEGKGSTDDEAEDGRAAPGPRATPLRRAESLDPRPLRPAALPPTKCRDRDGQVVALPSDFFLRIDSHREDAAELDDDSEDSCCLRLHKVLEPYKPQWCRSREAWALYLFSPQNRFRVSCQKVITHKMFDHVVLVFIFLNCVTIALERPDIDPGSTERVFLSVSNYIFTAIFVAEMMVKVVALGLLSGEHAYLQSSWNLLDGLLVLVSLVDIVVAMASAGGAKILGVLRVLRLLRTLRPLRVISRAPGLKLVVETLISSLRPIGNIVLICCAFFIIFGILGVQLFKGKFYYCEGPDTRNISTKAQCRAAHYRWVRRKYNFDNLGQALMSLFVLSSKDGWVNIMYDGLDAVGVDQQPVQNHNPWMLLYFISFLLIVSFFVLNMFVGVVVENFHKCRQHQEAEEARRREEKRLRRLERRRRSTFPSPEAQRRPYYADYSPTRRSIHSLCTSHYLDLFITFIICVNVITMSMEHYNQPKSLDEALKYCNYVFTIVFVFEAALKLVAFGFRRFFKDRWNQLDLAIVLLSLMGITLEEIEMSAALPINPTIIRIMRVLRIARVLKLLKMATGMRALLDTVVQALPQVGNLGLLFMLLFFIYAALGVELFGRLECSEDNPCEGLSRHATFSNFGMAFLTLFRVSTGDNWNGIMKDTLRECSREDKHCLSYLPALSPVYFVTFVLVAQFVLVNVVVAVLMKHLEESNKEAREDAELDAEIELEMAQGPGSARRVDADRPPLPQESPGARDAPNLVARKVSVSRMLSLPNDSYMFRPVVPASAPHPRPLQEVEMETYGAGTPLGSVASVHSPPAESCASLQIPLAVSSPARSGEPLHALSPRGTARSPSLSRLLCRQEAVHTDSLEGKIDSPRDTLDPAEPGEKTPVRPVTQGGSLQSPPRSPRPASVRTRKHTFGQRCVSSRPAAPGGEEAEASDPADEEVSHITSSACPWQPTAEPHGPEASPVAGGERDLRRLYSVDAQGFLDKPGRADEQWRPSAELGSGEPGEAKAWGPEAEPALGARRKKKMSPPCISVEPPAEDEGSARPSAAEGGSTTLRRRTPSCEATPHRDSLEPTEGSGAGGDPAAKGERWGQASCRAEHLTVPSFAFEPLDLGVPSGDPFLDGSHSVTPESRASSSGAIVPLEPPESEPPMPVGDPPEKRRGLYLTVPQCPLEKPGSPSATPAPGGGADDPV
Chain of Nucleotide-binding oligomerization domain-containing protein 2 (Q9HC29 whole entry, the tested form may be a part): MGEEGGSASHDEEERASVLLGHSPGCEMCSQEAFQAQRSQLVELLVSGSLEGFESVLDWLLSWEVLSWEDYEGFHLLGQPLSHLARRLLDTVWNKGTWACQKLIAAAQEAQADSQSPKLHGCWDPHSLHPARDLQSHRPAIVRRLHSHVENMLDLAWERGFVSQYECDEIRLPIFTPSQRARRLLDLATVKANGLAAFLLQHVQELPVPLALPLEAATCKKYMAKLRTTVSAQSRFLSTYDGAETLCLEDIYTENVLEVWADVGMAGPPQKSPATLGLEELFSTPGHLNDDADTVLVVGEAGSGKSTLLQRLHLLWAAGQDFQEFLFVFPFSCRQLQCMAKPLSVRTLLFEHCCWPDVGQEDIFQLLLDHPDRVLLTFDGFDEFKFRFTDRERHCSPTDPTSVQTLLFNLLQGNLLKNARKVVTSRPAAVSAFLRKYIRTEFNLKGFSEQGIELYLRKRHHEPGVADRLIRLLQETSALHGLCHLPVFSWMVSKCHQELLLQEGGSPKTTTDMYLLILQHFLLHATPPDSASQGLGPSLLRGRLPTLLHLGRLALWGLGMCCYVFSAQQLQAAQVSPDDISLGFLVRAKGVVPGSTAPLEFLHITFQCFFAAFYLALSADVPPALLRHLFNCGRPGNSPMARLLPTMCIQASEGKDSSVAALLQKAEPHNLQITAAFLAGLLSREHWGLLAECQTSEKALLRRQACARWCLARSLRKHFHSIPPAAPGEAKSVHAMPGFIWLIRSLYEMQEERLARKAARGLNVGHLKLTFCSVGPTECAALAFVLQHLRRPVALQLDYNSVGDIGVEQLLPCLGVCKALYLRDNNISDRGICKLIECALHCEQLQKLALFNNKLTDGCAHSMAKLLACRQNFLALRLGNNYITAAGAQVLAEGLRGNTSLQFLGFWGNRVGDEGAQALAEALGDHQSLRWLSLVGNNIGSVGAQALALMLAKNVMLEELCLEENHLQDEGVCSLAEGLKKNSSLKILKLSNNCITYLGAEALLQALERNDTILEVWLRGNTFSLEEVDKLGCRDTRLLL

COc1ccc(-c2cc(N)n(S(=O)(=O)c3ccc(C(C)(C)C)cc3)n2)cc1OC
> 100 µM (not active): IC50 [1] | IC50 (Bcl-2-related protein A1 [2]) | IC50 (Bcl-2-related protein A1 [3])
inactive: IC50 [4] > 20 µM | IC50 (Tumor necrosis factor) > 20 µM | IC50 (HEK293) > 20 µM | IC50 [5] > 20 µM

Cc1oc(/N=C/c2ccccc2)c(C#N)c1C
inactive: AC50 [7] > 195 µM | AC50 (INS1) > 260 µM
> 195 µM (not active): EC50 [6]
active: AC50 [8] 33.8 µM

CCC(CC)CN1CC2CCC(NC(=O)c3cc(Cl)cc(Cl)c3)C2C1 (configuration not stated)
active: EC50 [9] 2.4 µM

Cc1ccc(-c2nc(NC(=O)CSc3cc(C)c4ccccc4n3)ns2)cc1
active: IC50 [10] 27.3 µM | EC50 [11] 29.1 µM | IC50 [12] 8.86 µM | EC50 [13] 17.9 µM | IC50 [14] 24.3 µM | IC50 [15] 0.77 µM | IC50 [16] 3.06 µM | IC50 [17] 1.31 µM | IC50 [18] 9.06 µM | IC50 [19] 11.7 µM
